Laboratory results published in US10123985B2, “Therapeutic strategies for treating mitochondrial disorders” (Whitehead Institute for Biomedical Research, priority 2015, dated 2018).
Entries after “also recorded” stand apart in the source; their conditions may differ.

Columns and labels:
143B cells [1] = test: Measurement of NAD+/NADH (NAD/NADH Glo) in 143B cells with respiration inhibitors; format: cell-based; conditions: oligomycin with or without FCCP
Procedure: NAD^+/NADH measurements were done using a modified version of manufacturer instructions of NAD/NADH Glo Assay (Promega). Cells were plated and treated as for proliferation assays and cell extracts were taken 6 hours after treatment. For extraction, cells were quickly washed 3 times in ice cold PBS, extracted in 100 μL ice cold lysis buffer (1% Dodecyltrimethylammonium bromide (DTAB) in 0.2 N NaOH diluted 1:1 with PBS), and immediately frozen at −80° C. To measure NADH, 20 μL of sample was moved to PCR tubes and incubated at 75° C. for 30 min, where the basic conditions will selectively degrade NAD^+. To measure NAD^+, 20 μL of the samples was moved to PCR tubes containing 20 μL lysis buffer and 20 μL 0.4 N HCl and incubated at 60° C. for 15 min, where acidic conditions will degrade NADH. Following incubations, samples were allowed to equilibrate to room temperature and then quenched by neutralizing with 20 μL 0.25 M Tris in 0.2 N HCl (NADH) or 20 μL 0.5 M Tris base (NAD^+). Manufacturer instructions were followed thereafter to measure NAD^+/NADH.

143B cells [2] = test: Mitochondrial oxygen consumption (Seahorse XF24), cells treated with respiration inhibitors; format: cell-based; conditions: oligomycin with or without FCCP
Procedure: Oxygen consumption rates were determined on a Seahorse Bioscience Extracellular Flux Analyzer (XF24). Cells were plated in Seahorse Bioscience 24 well plates at 6E4 cells per well in 100 μL complete DMEM, allowed to attach for 1 hour, and 500 μl complete DMEM was added before overnight incubation. The following day cells were washed 2 times in assay media: DMEM without phenol red or pyruvate containing 0.5% dialyzed FBS and 0.1 mg/mL uridine at pH 7.4 and incubated in 500 μL of the same media for the assay.

143B cells [3] = test: Proliferation assay of wild-type 143B cells treated with respiration inhibitors; format: cell-based; conditions: for Proliferation of rotenone treated 143B cells: asparagine
Procedure: (§1) 143B, A172, H1299, HeLa, U87 and MEF cells were cultured in Dulbecco's Modified Eagle's Medium (DMEM) (Gibco) supplemented with 10% fetal bovine serum (FBS) and penicillin-streptomycin. FL5.12 cells were cultured in the same medium and supplemented with 5 μg/mL recombinant mouse IL-3 (R&D Systems). 143B cybrid cell lines (WT Cybrid and CytB) were cultured in DMEM with 10% FBS, penicillin-streptomycin, and 0.1 mg/mL uridine. All cells incubated at 37° C. with 5% CO2.
(§2) Adherent cell lines growing in log phase were trypsinized, counted, and plated onto 6 well dishes (Corning) in 2 mL complete DMEM and incubated overnight. Initial seeding density was 2E4 cells per well for 143B, A172, H1299, HeLa, 143B WT Cybrid, and MEFs and 3E4 cells for 143B CytB and U87 cells. The following day, one plate of cells was counted to determine the initial cell count at the time of treatment. Cells were washed 2 times with 2 mL phosphate buffered saline (PBS) and 4 mL media premixed with the indicated treatments was added. FL5.12 cells, a suspension cell line, were washed 2 times in PBS and added directly to media containing the indicated treatments and 5 μg/mL recombinant mouse IL-3. Proliferation rate assay media was DMEM without pyruvate containing 10% dialyzed FBS, penicillin-streptomycin, and 0.1 mg/mL uridine, unless otherwise noted. For these cell lines at these seeding densities it was determined that for 4 days the cells maintained logarithmic proliferation (data not shown), therefore final cell counts were measured 4 days after treatment. Cells were counted using Cellometer Auto T4 Plus Cell Counter (Nexcelom Bioscience). Proliferation rate was determined using the following formula: Proliferation Rate (Doublings per day)=(log2(Final cell count (day 5)/Initial cell count (day 1))/4 (days)

143B cells [4] = test: 13C asparagine labelling, GCMS of aspartate and released asparagine; format: cell-based
Procedure: FIG. 26. […] (A) Proliferation rate was measured after 4 days in DMEM without pyruvate and the indicated media conditions. Untr; Untreated. AKB; 1 mM alpha-ketobutyrate. Asp; 20 mM aspartate. Asn; asparagine, with the indicated concentrations. (B) GCMS measurement of intracellular levels of aspartate after 24 hours from the indicated treatment conditions. Aspartate levels are shown as the log2 of the measured total ion count (TIC). (C) The proliferation rate from FIG. 26A and the aspartate levels from FIG. 26B were graphed against one another to show a correlation between aspartate levels and proliferation rate. Grey triangles are the untreated conditions, blue squares are the AKB conditions, and green dots are the 1 mM ASN conditions. (D) GCMS measurement of intracellular aspartate levels after a 24-hour incubation in untreated media or media treated with 1 mM ^13C asparagine. The bars are split to show the fraction of aspartate that is unlabeled (M+0) and the fraction of aspartate that is labeled with 4 ^13C carbons (M+4). (E) GCMS measurement of unlabeled (M+0) asparagine released into the media (de novo produced asparagine) after a 24-hour incubation in untreated media or media treated with 1 mM ^13C asparagine.
The mechanism by which extracellular asparagine treatment can restore intracellular aspartate levels was also investigated. First, we treated 143B cells with 1 mM asparagine containing four ^13C carbon atoms. […] The small fraction containing labeled aspartate was likely from ^13C aspartate contamination in the ^13C asparagine added to the media. […] One plausible mechanism by which providing the cells with extracellular asparagine would decrease intracellular aspartate consumption is through product inhibition of asparagine synthetase (ASNS) activity. Decreased ASNS activity would decrease aspartate consumption and therefore increased aspartate levels. To test this, we measured the release of unlabeled asparagine in the media of untreated cells or cells treated with 1 mM ^13C asparagine. […]

143B cells [5] = test: Amino acid and TCA cycle metabolite GC-MS analysis, 143B cells; format: cell-based; conditions: for TCA metabolite, aspartate and glutamate pool sizes: wild-type 143B cells, respiration inhibitor alone
Procedure: 143B and 143B CytB cells were seeded at 400,000 cells/well in 6 well dishes overnight. The following day, cells were washed 2 times in PBS and media was changed to proliferation assay media with or without the indicated treatments. […] Soluble content was then dried under nitrogen gas. Polar samples were derivatized and measured as detailed in (Lewis). Relative metabolite abundances were determined by integrating ion peak area (Metran) and normalized to norvaline internal extraction standard.

143B CytB cells = test: Proliferation assay of respiration-incompetent 143B CytB cybrid cells; format: cell-based; conditions: media supplemented with the substance; no pyruvate unless tested, uridine present
Procedure: FL5.12 cells were cultured in the same medium and supplemented with 5 μg/mL recombinant mouse IL-3 (R&D Systems). […] All cells incubated at 37° C. with 5% CO2.
as §2, with “Initial seeding density was 2E4 cells per well for 143B, A172, H1299, HeLa, 143B WT Cybrid, and MEFs and 3E4 cells for 143B CytB and U87 cells.” left out, “For these cell lines at these seeding densities it was determined that for 4 days the cells maintained logarithmic proliferation (data not shown), therefore final cell counts were measured 4 days after treatment.” left out

[6] = tested on: A549 lung carcinoma xenografts; test: A549 xenograft study with metformin; format: in vivo, nude mice
Procedure: FIG. 27. In vivo mitochondrial inhibition inhibits cellular proliferation and decreases intracellular growth rate. (A) A549 xenografts in nude mice were treated with varying doses of the mitochondrial inhibitor, metformin, once a day by oral gavage at the indicated concentrations. LCMS measurement of (B) serum and (C) tumor metformin concentration for the indicated metformin treatment conditions. (D) GCMS measurement of intracellular aspartate levels in the tumors following 10 days of the indicated treatment. Aspartate levels are shown as aspartate total ion count (TIC) normalized to leucine TIC.
An in vivo correlation between mitochondrial inhibition and growth inhibition, and further, a correlation between the degree of growth inhibition and intracellular aspartate levels were shown in a xenograft study. A549 lung carcinoma cells were xenografted into nude mice, and the cells were allowed to grow until they formed a tumor 50 mm^3 in volume. When the tumors reached 50 mm^3, the mice were randomly sorted into three groups and treated once a day by oral gavage with vehicle or the mitochondrial inhibitor metformin (500 mg/kg or 1500 mg/kg).

Jurkat cells = test: Proliferation assay (Cell Titer Glo, 5 days) of wild type and knock-out Jurkat cells; format: cell-based, human; conditions: 5-day treatment
Procedure: sgRNAs (oligonucleotide sequences are indicated above) were cloned into lentiCRISPR-v1 linearized with BsmBI by Gibson Assembly (NEB). sgRNA expressing vector along with lentiviral packaging vectors Delta-VPR and CMV VSVG were transfected into HEK-293T cells using the XTremeGene 9 transfection reagent (Roche). Similarly, for overexpression cell lines, cDNA vectors along with retroviral packaging vectors gag-pol and CMV VSV-G were transfected into HEK-293T cells. Media was changed 24 hours after transfection.

[7] = tested on: A172, H1299, HeLa, U87, FL5.12, and MEF cell lines; test: Proliferation assay of a panel of cell lines treated with respiration inhibitors; format: cell-based; conditions: respiration inhibitor alone
Procedure: as §1, §2

[8] = tested on: Raji lymphoma and KMS-26 multiple myeloma cells; format: cell-based, human; conditions: 5-day treatment
Procedure: […]. Media was changed 24 hours after transfection.

[9] = 1 mM 13C asparagine, 24-hour incubation
[10] = metformin 500 mg/kg or 1500 mg/kg once a day by oral gavage

N#CC(C#N)=NNc1ccc(OC(F)(F)F)cc1 [FCCP, carbonyl cyanide-4-(trifluoromethoxy)phenylhydrazone, reference compound]
NAD+/NADH ratio of oligomycin treated 143B cells (143B cells [1]): increased
Oxygen consumption of oligomycin treated cells (143B cells [2]): increased
Proliferation rate of oligomycin treated 143B cells (143B cells [3]; oligomycin with or without FCCP): increased proliferation of oligomycin treated cells

NC(=O)C[C@H](N)C(=O)O [^13C asparagine]
Intracellular aspartate levels (143B cells [4]; [9]): did increase intracellular aspartate levels
Labelling of intracellular aspartate pool (143B cells [4]; [9]): nearly all of the intracellular aspartate pool was unlabeled (M+0)

NC(=O)C[C@H](N)C(=O)O [asparagine]
Restoration of intracellular aspartate compared to AKB (143B cells [5]; rotenone treated 143B cells, 1 mM asparagine): incomplete compared to AKB
Intracellular aspartate levels (143B cells [5]; rotenone treated 143B cells, 24 hours, AKB or 1 mM asparagine): increased intracellular aspartate; also recorded: restores intracellular aspartate levels and proliferation in rotenone treated cells
Proliferation of rotenone treated 143B cells (143B cells [3]; high doses of rotenone): not able to restore proliferation
Proliferation of rotenone treated 143B cells (143B cells [3]; low doses of rotenone): sufficient to restore proliferation; also recorded: restores intracellular aspartate levels and proliferation in rotenone treated cells
Release of unlabeled (de novo produced) asparagine into the media (143B cells [4]; 1 mM 13C asparagine versus untreated, 24 hours): produce less asparagine

COC(=O)CCC(=O)C(=O)OC [dimethyl α-ketoglutarate, reference compound]
Proliferation rate of 143B CytB cells (143B CytB cells): able to restore some proliferation to 143B CytB cells, albeit at a much lower capacity than aspartate

Nc1nc2nc[nH]c2c(=O)[nH]1 [guanine, reference compound]
Proliferation rate of 143B CytB cells (143B CytB cells): somewhat toxic

O=c1[nH]cnc2nc[nH]c12 [hypoxanthine, reference compound]
Proliferation rate of 143B CytB cells (143B CytB cells): no effect on proliferation

CN(C)C(=N)N=C(N)N [metformin]
Normalized intracellular aspartate levels in tumors ([6]; 10 days of treatment, aspartate TIC normalized to leucine TIC): decrease in a dose-dependent manner
Tumor concentration of metformin ([6]; escalating doses of metformin): increased tumor concentration of metformin
Serum concentrations of metformin [6, 10]: at concentrations that would be therapeutically relevant and tolerable in humans
Tumor growth [6, 10]: dose dependently inhibited tumor growth
Sensitivity of GOT1-null versus wild-type cells to other ETC inhibitors (Jurkat cells): substantially more sensitive; also recorded: GOT1-null cells die

CC[C@H]1/C=C/C=C/C[C@@H](C)[C@H](O)[C@@](C)(O)C(=O)[C@@H](C)[C@H](O)[C@@H](C)C(=O)[C@@H](C)[C@H](O)[C@@H](C)/C=C/C(=O)O[C@@H]2[C@H](C)[C@H](CC1)O[C@]1(CC[C@H](C)[C@H](C[C@@H](C)O)O1)[C@H]2C [oligomycin, reference compound]
TCA metabolite, aspartate and glutamate pool sizes (143B cells [5]): decreases in TCA metabolites and aspartate, but not glutamate
Proliferation of cell line panel [7]: blocked proliferation

C/C=C(\C)[C@H](O)[C@H](C)/C=C(C)/C=C/C/C(C)=C/Cc1nc(OC)c(OC)c(O)c1C [piericidin, reference compound]
Viability of GOT1-null KMS-26 and Raji cells with other mitochondrial toxins [8]: GOT1-null KMS-26 and Raji cells die
Sensitivity of GOT1-null versus wild-type cells to other ETC inhibitors (Jurkat cells): GOT1-null cells die; also recorded: substantially more sensitive

C=C(C)[C@H]1Cc2c(ccc3c2O[C@@H]2COc4cc(OC)c(OC)cc4[C@@H]2C3=O)O1 [rotenone, reference compound]
TCA metabolite, aspartate and glutamate pool sizes (143B cells [5]): decreases in TCA metabolites and aspartate, but not glutamate
Proliferation of cell line panel [7]: blocked proliferation

antimycin [reference compound]
TCA metabolite, aspartate and glutamate pool sizes (143B cells [5]): decreases in TCA metabolites and aspartate, but not glutamate
Proliferation of cell line panel [7]: blocked proliferation
Viability of GOT1-null KMS-26 and Raji cells with other mitochondrial toxins [8]: GOT1-null KMS-26 and Raji cells die
Sensitivity of GOT1-null versus wild-type cells to other ETC inhibitors (Jurkat cells): GOT1-null cells die; also recorded: substantially more sensitive
